This is an account of results in US11111237B2, “Bicyclic compound and use thereof” (SK BIOPHARMACEUTICALS CO., LTD., priority 2019, dated 2021).

pIC50: −log10 of the molar value.

In general, pIC50 refers to the IC50 on a negative log10 scale, so that one unit is a factor of ten.

PRMT5-MEP50 enzyme complex, sequence (O14744 2-637): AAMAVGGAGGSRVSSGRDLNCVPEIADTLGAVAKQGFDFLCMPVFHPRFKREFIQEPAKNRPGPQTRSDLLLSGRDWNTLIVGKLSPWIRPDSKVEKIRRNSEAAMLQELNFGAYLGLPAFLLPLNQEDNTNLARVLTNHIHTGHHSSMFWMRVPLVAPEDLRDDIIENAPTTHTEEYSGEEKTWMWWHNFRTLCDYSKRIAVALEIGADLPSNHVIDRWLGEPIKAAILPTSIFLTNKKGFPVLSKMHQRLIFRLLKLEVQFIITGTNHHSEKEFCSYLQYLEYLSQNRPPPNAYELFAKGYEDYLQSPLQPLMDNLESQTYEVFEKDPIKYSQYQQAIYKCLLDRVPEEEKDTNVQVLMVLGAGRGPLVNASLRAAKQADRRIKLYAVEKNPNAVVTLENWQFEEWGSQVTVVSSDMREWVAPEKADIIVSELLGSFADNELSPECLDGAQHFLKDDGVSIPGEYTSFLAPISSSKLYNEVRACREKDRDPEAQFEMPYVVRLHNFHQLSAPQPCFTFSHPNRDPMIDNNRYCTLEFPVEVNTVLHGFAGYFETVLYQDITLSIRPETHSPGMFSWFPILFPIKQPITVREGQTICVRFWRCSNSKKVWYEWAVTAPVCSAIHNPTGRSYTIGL
PRMT5-MEP50 enzyme complex, sequence (Q9BQA1 2-342 partner): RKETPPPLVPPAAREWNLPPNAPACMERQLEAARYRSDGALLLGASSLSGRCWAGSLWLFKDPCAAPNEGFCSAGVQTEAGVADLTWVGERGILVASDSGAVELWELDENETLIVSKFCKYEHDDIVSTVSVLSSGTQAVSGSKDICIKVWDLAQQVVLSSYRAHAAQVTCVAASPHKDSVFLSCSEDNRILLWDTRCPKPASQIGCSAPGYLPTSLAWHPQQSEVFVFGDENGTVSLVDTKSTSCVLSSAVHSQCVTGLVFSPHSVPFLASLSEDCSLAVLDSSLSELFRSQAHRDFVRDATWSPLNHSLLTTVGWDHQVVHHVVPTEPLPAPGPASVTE

The target in the assay is PRMT5-MEP50 enzyme complex (Homo sapiens (Human), UniProt O14744). Kind of assay: PRMT5 enzyme activity in vitro assay (methylation of histone H4R3, ELISA absorbance at 450 nm). In kind it is biochemical. The note with it: SAM, histone H4 peptide, room temperature 2 hours, 8 points from 10 μM to 0.128 nM. The essentials:
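Human PRMT5-MEP50 was prepared at 5 μg/mL with SAM at 2 μM and reacted 2 h at room temperature on plate-coated histone H4 (1-20) peptide. An 8-point 1:5 compound series ran from 10 μM to 0.128 nM. H4R3 methylation was detected by antibody/HRP ELISA at 450 nm to give IC50.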
`COCCN1CC[C@@H](Oc2ccc3c(c2)OCCN(C[C@H](O)CN2CCc4ccccc4C2)C3=O)C1` [Example 272, 4-[(2R)-3-(3,4-dihydro-1H-isoquinolin-2-yl)-2-hydroxy-propyl]-8-[(3R)-1-(2-methoxyethyl)pyrrolidin-3-yl]oxy-2,3-dihydro-1,4-benzoxazepin-5-one] had a pIC50 of 6.00 to 7.00. `CCOCCN1CCC(Oc2ccc3c(c2)O[C@H](C)CN(C[C@H](O)CN2CCc4ccccc4C2)C3=O)CC1` [Example 240, (2R)-4-[(2R)-3-(3,4-dihydro-1H-isoquinolin-2-yl)-2-hydroxy-propyl]-8-[[1-(2-ethoxyethyl)-4-piperidyl]oxy]-2-methyl-2,3-dihydro-1,4-benzoxazepin-5-one] showed a pIC50 of 6.00 to 7.00. Compound `O=C1c2ccc(C3CCOCC3)cc2OCCN1C[C@H](O)CN1CCc2ccccc2C1` [Example 21, 4-[(2R)-3-(3,4-dihydro-1H-isoquinolin-2-yl)-2-hydroxy-propyl]-8-tetrahydropyran-4-yl-2,3-dihydro-1,4-benzoxazepin-5-one] gave a negative logarithm of the IC50 (pIC50) of 6.00 to 7.00. For the compound `CC(=O)N1CC[C@@H](Oc2ccc3c(c2)OCCN(C[C@H](O)CN2CCc4ccccc4C2)C3=O)C1` [Example 81, 8-[(3R)-1-acetylpyrrolidin-3-yl]oxy-4-[(2R)-3-(3,4-dihydro-1H-isoquinolin-2-yl)-2-hydroxy-propyl]-2,3-dihydro-1,4-benzoxazepin-5-one], the negative logarithm of the IC50 (pIC50) was 7.00 to 9.00. Next, `CC(=O)N1CC[C@@H](Oc2ccc3c(c2)N(C)CCN(C[C@H](O)CN2CCc4ccccc4C2)C3=O)C1` [Example 123, 8-[(3R)-1-acetylpyrrolidin-3-yl]oxy-4-[(2R)-3-(3,4-dihydro-1H-isoquinolin-2-yl)-2-hydroxy-propyl]-1-methyl-2,3-dihydro-1,4-benzodiazepin-5-one]: 6.00 to 7.00. For the compound `CCC1CCCN1Cc1ccc2c(c1)OCCN(C[C@H](O)CN1CCc3ccccc3C1)C2=O` (stereo partly drawn) [Example 48, 4-[(2R)-3-(3,4-dihydro-1H-isoquinolin-2-yl)-2-hydroxy-propyl]-8-[(2-ethylpyrrolidin-1-yl)methyl]-2,3-dihydro-1,4-benzoxazepin-5-one], the pIC50 is 6.00 to 7.00.

`C[C@@H]1CN(C[C@H](O)CN2CCc3ccccc3C2)C(=O)c2ccc(OC3CCN(C[C@@H](C)O)CC3)cc2O1` [Example 268, (2R)-4-[(2R)-3-(3,4-dihydro-1H-isoquinolin-2-yl)-2-hydroxy-propyl]-8-[[1-[(2R)-2-hydroxypropyl]-4-piperidyl]oxy]-2-methyl-2,3-dihydro-1,4-benzoxazepin-5-one] gave a negative logarithm of the IC50 (pIC50) of 6.00 to 7.00. Under `O=C1c2ccc(CN3CC4(COC4)C3)cc2OCCN1C[C@H](O)CN1CCc2ccccc2C1` [Example 28, 4-[(2R)-3-(3,4-dihydro-1H-isoquinolin-2-yl)-2-hydroxy-propyl]-8-(2-oxa-6-azaspiro[3.3]heptan-6-ylmethyl)-2,3-dihydro-1,4-benzoxazepin-5-one] stands 7.00 to 9.00.

For the compound `O=C1c2ccc(C#Cc3cccnc3)cc2OCCN1C[C@H](O)CN1CCc2ccccc2C1` [Example 227, 4-[(2R)-3-(3,4-dihydro-1H-isoquinolin-2-yl)-2-hydroxy-propyl]-8-[2-(3-pyridyl)ethynyl]-2,3-dihydro-1,4-benzoxazepin-5-one], the negative logarithm of the IC50 (pIC50) was 7.00 to 9.00. As for `CC1(C)CN(C[C@H](O)CN2CCc3ccccc3C2)C(=O)c2ccc(OC3CCN(CCO)CC3(F)F)nc2O1` (stereo partly drawn) [Example 256, 8-[[3,3-difluoro-1-(2-hydroxyethyl)-4-piperidyl]oxy]-4-[(2R)-3-(3,4-dihydro-1H-isoquinolin-2-yl)-2-hydroxy-propyl]-2,2-dimethyl-3H-pyrido[3,2-f][1,4]oxazepin-5-one], the pIC50 is 6.00 to 7.00.

`CC(c1ccc2c(c1)OCCN(C[C@H](O)CN1CCc3ccccc3C1)C2=O)N1CC2(COC2)C1` (stereo partly drawn) [Example 222, 4-[(2R)-3-(3,4-dihydro-1H-isoquinolin-2-yl)-2-hydroxy-propyl]-8-[1-(2-oxa-6-azaspiro[3.3]heptan-6-yl)ethyl]-2,3-dihydro-1,4-benzoxazepin-5-one]: the pIC50 is 6.00 to 7.00. Next, `CCOc1ccc2c(c1)CCCN(C[C@H](O)CN1CCc3ccccc3C1)C2=O` [Example 7, 2-[(2R)-3-(3,4-dihydro-1H-isoquinolin-2-yl)-2-hydroxy-propyl]-7-ethoxy-4,5-dihydro-3H-2-benzazepin-1-one]: 6.00 to 7.00; `CC(=O)N1CC(Oc2ccc3c(c2)O[C@H](C)CN(C[C@H](O)CN2CCc4ccccc4C2)C3=O)C1` [Example 142, (2R)-8-(1-acetylazetidin-3-yl)oxy-4-[(2R)-3-(3,4-dihydro-1H-isoquinolin-2-yl)-2-hydroxypropyl]-2-methyl-2,3-dihydro-1,4-benzoxazepin-5-one]: 7.00 to 9.00; `CN1CCC(Oc2cc(F)c3c(c2)OCCN(C[C@H](O)CN2CCc4ccccc4C2)C3=O)CC1` [Example 109, 4-[(2R)-3-(3,4-dihydro-1H-isoquinolin-2-yl)-2-hydroxy-propyl]-6-fluoro-8-[(1-methyl-4-piperidyl)oxy]-2,3-dihydro-1,4-benzoxazepin-5-one]: 6.00 to 7.00. Turning to `O=C1c2ccc(OC3CCN(C(=O)C(F)F)CC3)cc2OCCN1C[C@H](O)CN1CCc2ccccc2C1` [Example 160, 8-[[1-(2,2-difluoroacetyl)-4-piperidyl]oxy]-4-[(2R)-3-(3,4-dihydro-1H-isoquinolin-2-yl)-2-hydroxy-propyl]-2,3-dihydro-1,4-benzoxazepin-5-one], the pIC50 is 7.00 to 9.00. Under `O=C1c2ccc(CN3CCC[C@H]3CO)cc2OCCN1C[C@H](O)CN1CCc2ccccc2C1` [Example 46, 4-[(2R)-3-(3,4-dihydro-1H-isoquinolin-2-yl)-2-hydroxy-propyl]-8-[[(2S)-2-(hydroxymethyl)pyrrolidin-1-yl]methyl]-2,3-dihydro-1,4-benzoxazepin-5-one] stands 6.00 to 7.00. Under `CC1(C)CN(C[C@H](O)CN2CCc3ccccc3C2)C(=O)c2ccc(CN3CCCC3)cc2O1` [Example 179, 4-[(2R)-3-(3,4-dihydro-1H-isoquinolin-2-yl)-2-hydroxy-propyl]-2,2-dimethyl-8-(pyrrolidin-1-ylmethyl)-3H-1,4-benzoxazepin-5-one] stands 6.00 to 7.00.

As to `C[C@H](O)CN1CCC(Oc2ccc3c(c2)O[C@H](C)CN(C[C@H](O)CN2CCc4ccccc4C2)C3=O)CC1` [Example 267, (2R)-4-[(2R)-3-(3,4-dihydro-1H-isoquinolin-2-yl)-2-hydroxy-propyl]-8-[[1-[(2S)-2-hydroxypropyl]-4-piperidyl]oxy]-2-methyl-2,3-dihydro-1,4-benzoxazepin-5-one], the negative logarithm of the IC50 (pIC50) was 6.00 to 7.00. Under `CN1CCC(Oc2ccc3c(c2)OCCN(C[C@H](O)CN2CCc4ccccc4C2)C3=O)C1` (stereo partly drawn) [Example 98, 4-[(2R)-3-(3,4-dihydro-1H-isoquinolin-2-yl)-2-hydroxy-propyl]-8-(1-methylpyrrolidin-3-yl)oxy-2,3-dihydro-1,4-benzoxazepin-5-one] stands 6.00 to 7.00; under `CN(C)CCOc1ccc2c(c1)OCCN(C[C@H](O)CN1CCc3ccccc3C1)C2=O` [Example 72, 4-[(2R)-3-(3,4-dihydro-1H-isoquinolin-2-yl)-2-hydroxy-propyl]-8-[2-(dimethylamino)ethoxy]-2,3-dihydro-1,4-benzoxazepin-5-one], 6.00 to 7.00; under `O=C1c2ccc(OC3CCN(CCF)CC3)nc2OCCN1C[C@H](O)CN1CCc2ccccc2C1` [Example 164, 4-[(2R)-3-(3,4-dihydro-1H-isoquinolin-2-yl)-2-hydroxy-propyl]-8-[[1-(2-fluoroethyl)-4-piperidyl]oxy]-2,3-di hydropyrido[3,2-f][1,4]oxazepin-5-one], 6.00 to 7.00. Next, `CN(CCF)C1CCC(Oc2ccc3c(c2)OCCN(C[C@H](O)CN2CCc4ccccc4C2)C3=O)CC1` (stereo partly drawn) [Example 199, 4-[(2R)-3-(3,4-dihydro-1H-isoquinolin-2-yl)-2-hydroxypropyl]-8-[4-[2-fluoroethyl(methyl)amino]cyclohexoxy]-2,3-dihydro-1,4-benzoxazepin-5-one]: 7.00 to 9.00; `O=C1c2ccc(OCc3ccc(F)nc3)cc2OCCN1C[C@H](O)CN1CCc2ccccc2C1` [Example 61, 4-[(2R)-3-(3,4-dihydro-1H-isoquinolin-2-yl)-2-hydroxy-propyl]-8-[(6-fluoro-3-pyridyl)methoxy]-2,3-dihydro-1,4-benzoxazepin-5-one]: 6.00 to 7.00. Compound `CC1CN(C[C@H](O)CN2CCc3ccccc3C2)C(=O)c2ccc(OC3CCN(C)CC3)cc2O1` (stereo partly drawn) [Example 141, 4-[(2R)-3-(3,4-dihydro-1H-isoquinolin-2-yl)-2-hydroxypropyl]-2-methyl-8-[(1-methyl-4-piperidyl)oxy]-2,3-dihydro-1,4-benzoxazepin-5-one] showed a pIC50 of 7.00 to 9.00. Next, `CC1(C)CN(C[C@H](O)CN2CCc3ccccc3C2)C(=O)c2ccc(CN3CCOCC3)nc2O1` [Example 192, 4-[(2R)-3-(3,4-dihydro-1H-isoquinolin-2-yl)-2-hydroxy-propyl]-2,2-dimethyl-8-(morpholinomethyl)-3H-pyrido[3,2-f][1,4]oxazepin-5-one]: 6.00 to 7.00; `CN1CCN(C[C@H](O)CN2CCc3ccccc3C2)C(=O)c2ccc(CC3CCCCC3)cc21` [Example 117, 8-(cyclohexylmethyl)-4-[(2R)-3-(3,4-dihydro-1H-isoquinolin-2-yl)-2-hydroxy-propyl]-1-methyl-2,3-dihydro-1,4-benzodiazepin-5-one]: 6.00 to 7.00. Under `O=C1c2ccc(-c3ccncc3)cc2OCCN1C[C@H](O)CN1CCc2ccccc2C1` [Example 225, 4-[(2R)-3-(3,4-dihydro-1H-isoquinolin-2-yl)-2-hydroxy-propyl]-8-(4-pyridyl)-2,3-dihydro-1,4-benzoxazepin-5-one] stands 6.00 to 7.00; under `O=C1c2ccc(CN3CCC(F)C3)cc2OCCN1C[C@H](O)CN1CCc2ccccc2C1` (stereo partly drawn) [Example 51, 4-[(2R)-3-(3,4-dihydro-1H-isoquinolin-2-yl)-2-hydroxy-propyl]-8-[(3-fluoropyrrolidin-1-yl)methyl]-2,3-dihydro-1,4-benzoxazepin-5-one], 6.00 to 7.00.
